Test system: Genes belonging to other category
Assay: DNA chip mRNA expression in yeast, genes belonging to other category (Table 9)
Type: cell-based, Saccharomyces cerevisiae S288C
How it was run: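 In this screen, yeast in logarithmic growth are challenged for two hours with a toxic substance at a non-lethal inhibitory concentration. Their mRNA, converted to Cy3- or Cy5-labeled cDNA, hybridizes at 65° C. to a chip spanning every yeast gene, and expression is expressed as a ratio to untreated cells.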

## CN(C)C(=S)SSC(=S)N(C)C [(10), Tetramethylthiuram disulfide]
Yeast gene YAR009C
  The level of expressed mRNA in the presence of chemical substance/The level of expressed mRNA in the absence of chemical substance: 1.4
Yeast gene YAR010C
  The level of expressed mRNA in the presence of chemical substance/The level of expressed mRNA in the absence of chemical substance: 1.1
Yeast gene YBL005W-A
  The level of expressed mRNA in the presence of chemical substance/The level of expressed mRNA in the absence of chemical substance: 1.5
Yeast gene YBL041W
  The level of expressed mRNA in the presence of chemical substance/The level of expressed mRNA in the absence of chemical substance: 2.6
Yeast gene YBL043W
  The level of expressed mRNA in the presence of chemical substance/The level of expressed mRNA in the absence of chemical substance: 14.7
Yeast gene YBL078C
  The level of expressed mRNA in the presence of chemical substance/The level of expressed mRNA in the absence of chemical substance: 15.2
Yeast gene YBL101C
  The level of expressed mRNA in the presence of chemical substance/The level of expressed mRNA in the absence of chemical substance: 1.4
Yeast gene YBR010W
  The level of expressed mRNA in the presence of chemical substance/The level of expressed mRNA in the absence of chemical substance: 0.7
Yeast gene YBR031W
  The level of expressed mRNA in the presence of chemical substance/The level of expressed mRNA in the absence of chemical substance: 1.0
Yeast gene YBR170C
  The level of expressed mRNA in the presence of chemical substance/The level of expressed mRNA in the absence of chemical substance: 4.2
Yeast gene YBR201W
  The level of expressed mRNA in the presence of chemical substance/The level of expressed mRNA in the absence of chemical substance: 1.0
Yeast gene YBR214W
  The level of expressed mRNA in the presence of chemical substance/The level of expressed mRNA in the absence of chemical substance: 3.5
Yeast gene YBR239C
  The level of expressed mRNA in the presence of chemical substance/The level of expressed mRNA in the absence of chemical substance: 1.2
Yeast gene YBR286W
  The level of expressed mRNA in the presence of chemical substance/The level of expressed mRNA in the absence of chemical substance: 1.6
Yeast gene YBR290W
  The level of expressed mRNA in the presence of chemical substance/The level of expressed mRNA in the absence of chemical substance: 1.8
Yeast gene YCL020W
  The level of expressed mRNA in the presence of chemical substance/The level of expressed mRNA in the absence of chemical substance: 2.4
Yeast gene YCL027W
  The level of expressed mRNA in the presence of chemical substance/The level of expressed mRNA in the absence of chemical substance: 16.3
Yeast gene YCL033C
  The level of expressed mRNA in the presence of chemical substance/The level of expressed mRNA in the absence of chemical substance: 1.4
Yeast gene YCR004C
  The level of expressed mRNA in the presence of chemical substance/The level of expressed mRNA in the absence of chemical substance: 2.1
Yeast gene YCR062W
  The level of expressed mRNA in the presence of chemical substance/The level of expressed mRNA in the absence of chemical substance: 1.3
Yeast gene YCR071C
  The level of expressed mRNA in the presence of chemical substance/The level of expressed mRNA in the absence of chemical substance: 1.2
Yeast gene YCR088W
  The level of expressed mRNA in the presence of chemical substance/The level of expressed mRNA in the absence of chemical substance: 0.9
Yeast gene YCR091W
  The level of expressed mRNA in the presence of chemical substance/The level of expressed mRNA in the absence of chemical substance: 1.2
Yeast gene YDL008W
  The level of expressed mRNA in the presence of chemical substance/The level of expressed mRNA in the absence of chemical substance: 3.0
Yeast gene YDL097C
  The level of expressed mRNA in the presence of chemical substance/The level of expressed mRNA in the absence of chemical substance: 2.3
Yeast gene YDL238C
  The level of expressed mRNA in the presence of chemical substance/The level of expressed mRNA in the absence of chemical substance: 2.7
Yeast gene YDR055W
  The level of expressed mRNA in the presence of chemical substance/The level of expressed mRNA in the absence of chemical substance: 2.4
Yeast gene YDR080W
  The level of expressed mRNA in the presence of chemical substance/The level of expressed mRNA in the absence of chemical substance: 2.6
Yeast gene YDR084C
  The level of expressed mRNA in the presence of chemical substance/The level of expressed mRNA in the absence of chemical substance: 0.6
Yeast gene YDR085C
  The level of expressed mRNA in the presence of chemical substance/The level of expressed mRNA in the absence of chemical substance: 2.3
Yeast gene YDR104C
  The level of expressed mRNA in the presence of chemical substance/The level of expressed mRNA in the absence of chemical substance: 2.7
Yeast gene YDR115W
  The level of expressed mRNA in the presence of chemical substance/The level of expressed mRNA in the absence of chemical substance: 1.0
Yeast gene YDR169C
  The level of expressed mRNA in the presence of chemical substance/The level of expressed mRNA in the absence of chemical substance: 1.4
Yeast gene YDR188W
  The level of expressed mRNA in the presence of chemical substance/The level of expressed mRNA in the absence of chemical substance: 1.6
Yeast gene YDR259C
  The level of expressed mRNA in the presence of chemical substance/The level of expressed mRNA in the absence of chemical substance: 1.8
Yeast gene YDR264C
  The level of expressed mRNA in the presence of chemical substance/The level of expressed mRNA in the absence of chemical substance: 3.4
Yeast gene YDR276C
  The level of expressed mRNA in the presence of chemical substance/The level of expressed mRNA in the absence of chemical substance: 2.7
Yeast gene YDR315C
  The level of expressed mRNA in the presence of chemical substance/The level of expressed mRNA in the absence of chemical substance: 1.6
Yeast gene YDR329C
  The level of expressed mRNA in the presence of chemical substance/The level of expressed mRNA in the absence of chemical substance: 1.0
Yeast gene YDR358W
  The level of expressed mRNA in the presence of chemical substance/The level of expressed mRNA in the absence of chemical substance: 3.2
Yeast gene YDR378C
  The level of expressed mRNA in the presence of chemical substance/The level of expressed mRNA in the absence of chemical substance: 1.3
Yeast gene YDR388W
  The level of expressed mRNA in the presence of chemical substance/The level of expressed mRNA in the absence of chemical substance: 0.9
Yeast gene YDR427W
  The level of expressed mRNA in the presence of chemical substance/The level of expressed mRNA in the absence of chemical substance: 2.0
Yeast gene YDR432W
  The level of expressed mRNA in the presence of chemical substance/The level of expressed mRNA in the absence of chemical substance: 0.8
Yeast gene YDR481C
  The level of expressed mRNA in the presence of chemical substance/The level of expressed mRNA in the absence of chemical substance: 1.6

Reference: patent US8192962B2, “Processes for detecting toxic substances” (Daikin Industries, Ltd., priority 2001, dated 2012)
